From US20230278972A1, “SUBSTITUTED HALOALKYL SULFONANILIDE HERBICIDES” (FMC Corporation, priority 2020, published 2023)

Columns and labels:
Assay type in all cases: in vivo
[1] = system: ragweed (common ragweed, Ambrosia artemisiifolia); assay: Test A postemergence, ragweed; settings: Postemergence, 0 to 100 scale (0 no effect, 100 complete control); for Plant response rating, Ragweed: 125 g ai/ha; for Ragweed plant response rating: 500 g ai/ha, visual injury vs untreated controls after approx. 10 days
How it was run: (§1)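 Compounds in non-phytotoxic solvent with surfactant. Soil: loam/sand. Preemergence via directed soil spray after seeding; postemergence on seedlings 2–10 cm, one- to two-leaf.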

[2] = system: wheat (Triticum aestivum); assay: Test A postemergence, wheat; settings: Postemergence, 0 to 100 scale (0 no effect, 100 complete control); for Plant response rating, Wheat: 125 g ai/ha; for Wheat plant response rating: 500 g ai/ha, visual injury vs untreated controls after approx. 10 days
How it was run: (§2)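 Greenhouse pot test in a loam–sand blend; compounds delivered in a non-phytotoxic solvent carrying a surfactant, applied either as a directed spray to soil at seeding or over seedlings 2 to 10 cm high with one to two leaves.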

[3] = system: Foxtail, Giant (giant foxtail, Setaria faberi); assay: Test A postemergence, Foxtail, Giant; settings: Postemergence, 0 to 100 scale (0 no effect, 100 complete control); for Plant response rating, Foxtail, Giant: 125 g ai/ha; for Foxtail, Giant plant response rating: 500 g ai/ha, visual injury vs untreated controls after approx. 10 days
How it was run: as §1

[4] = system: barnyardgrass (Echinochloa crus-galli); assay: Test A preemergence, barnyardgrass; settings: Preemergence, 0 to 100 scale (0 no effect, 100 complete control)
How it was run: as §1

[5] = system: Foxtail, Giant (giant foxtail, Setaria faberi); assay: Test A preemergence, Foxtail, Giant; settings: Preemergence, 0 to 100 scale (0 no effect, 100 complete control)
How it was run: as §1

[6] = system: galium (catchweed bedstraw, Galium aparine); assay: Test A postemergence, galium; settings: Postemergence, 0 to 100 scale (0 no effect, 100 complete control); for Plant response rating, Galium: 125 g ai/ha; for Galium plant response rating: 500 g ai/ha, visual injury vs untreated controls after approx. 10 days
How it was run: as §2

[7] = system: blackgrass (Alopecurus myosuroides); assay: Test A postemergence, blackgrass; settings: Postemergence, 0 to 100 scale (0 no effect, 100 complete control); for Plant response rating, Blackgrass: 125 g ai/ha; for Blackgrass plant response rating: 500 g ai/ha, visual injury vs untreated controls after approx. 10 days
How it was run: as §1

corn (Zea mays) = assay: Test A postemergence, corn; settings: Postemergence, 0 to 100 scale (0 no effect, 100 complete control); for Plant response rating, Corn: 125 g ai/ha; for Corn plant response rating: 500 g ai/ha, visual injury vs untreated controls after approx. 10 days
How it was run: as §1

[8] = system: Ryegrass, Italian (Italian ryegrass, Lolium multiflorum); assay: Test A postemergence, Ryegrass, Italian; settings: Postemergence, 0 to 100 scale (0 no effect, 100 complete control); for Plant response rating, Ryegrass, Italian: 125 g ai/ha; for Ryegrass, Italian plant response rating: 500 g ai/ha, visual injury vs untreated controls after approx. 10 days
How it was run: as §1

[9] = system: pigweed (Amaranthus retroflexus); assay: Test A postemergence, pigweed; settings: Postemergence, 0 to 100 scale (0 no effect, 100 complete control); for Plant response rating, Pigweed: 125 g ai/ha; for Pigweed plant response rating: 500 g ai/ha, visual injury vs untreated controls after approx. 10 days
How it was run: as §1

[10] = system: barnyardgrass (Echinochloa crus-galli); assay: Test A postemergence, barnyardgrass; settings: Postemergence, 0 to 100 scale (0 no effect, 100 complete control); for Plant response rating, Barnyardgrass: 125 g ai/ha; for Barnyardgrass plant response rating: 500 g ai/ha, visual injury vs untreated controls after approx. 10 days
How it was run: as §2

kochia (Bassia scoparia) [11] = assay: Test A postemergence, kochia; settings: Postemergence, 0 to 100 scale (0 no effect, 100 complete control); for Plant response rating, Kochia: 125 g ai/ha; for Kochia plant response rating: 500 g ai/ha, visual injury vs untreated controls after approx. 10 days
How it was run: as §1

kochia (Bassia scoparia) [12] = assay: Test A preemergence, kochia; settings: Preemergence, 0 to 100 scale (0 no effect, 100 complete control)
How it was run: as §1

[13] = system: ragweed (common ragweed, Ambrosia artemisiifolia); assay: Test A preemergence, ragweed; settings: Preemergence, 0 to 100 scale (0 no effect, 100 complete control)
How it was run: as §1

[14] = system: Ryegrass, Italian (Italian ryegrass, Lolium multiflorum); assay: Test A preemergence, Ryegrass, Italian; settings: Preemergence, 0 to 100 scale (0 no effect, 100 complete control)
How it was run: as §1

[15] = system: pigweed (Amaranthus retroflexus); assay: Test A preemergence, pigweed; settings: 0 to 100 scale (0 no effect, 100 complete control)
How it was run: as §2

[16] = 125 g ai/ha, visual injury, approx. 10 days

Cc1cc(F)c(C(=O)N2CCCCC2)cc1NS(=O)(=O)C(F)(F)F [Compound 211]
Plant response rating, Ragweed [1]: 30
Ragweed plant response rating [1]: 60
Plant response rating, Wheat [2]: 0
Wheat plant response rating [2]: 0
Plant response rating, Foxtail, Giant [3]: 0
Foxtail, Giant plant response rating [3]: 50
Plant response rating, Barnyardgrass [4, 16]: 60
Plant response rating, Barnyardgrass ([4]; 500 g ai/ha): 90
Plant response rating, Foxtail, Giant [5, 16]: 60
Plant response rating, Foxtail, Giant ([5]; 500 g ai/ha): 90
Plant response rating, Galium [6]: 60
Galium plant response rating [6]: 70
Plant response rating, Blackgrass [7]: 0
Blackgrass plant response rating [7]: 0
Plant response rating, Corn (corn (Zea mays)): 0
Corn plant response rating (corn (Zea mays)): 0
Plant response rating, Ryegrass, Italian [8]: 40
Ryegrass, Italian plant response rating [8]: 30
Plant response rating, Pigweed [9]: 40
Pigweed plant response rating [9]: 60
Plant response rating, Barnyardgrass [10]: 0
Barnyardgrass plant response rating [10]: 30
Plant response rating, Kochia (kochia (Bassia scoparia) [11]): 10
Kochia plant response rating (kochia (Bassia scoparia) [11]): 50
Plant response rating, Kochia (kochia (Bassia scoparia) [12]; [16]): 80
Plant response rating, Kochia (kochia (Bassia scoparia) [12]; 500 g ai/ha): 90
Plant response rating, Ragweed [13, 16]: 30
Plant response rating, Ragweed ([13]; 500 g ai/ha): 80
Plant response rating, Ryegrass, Italian [14, 16]: 50
Plant response rating, Ryegrass, Italian ([14]; 500 g ai/ha): 70
Plant response rating, Pigweed [15, 16]: 20
Plant response rating, Pigweed ([15]; 500 g ai/ha): 90

Cc1cc(F)c(C(=O)N2CCCCC2)cc1N(S(=O)(=O)C(F)(F)F)S(=O)(=O)C(F)(F)F [Compound 212]
Plant response rating, Ragweed [1]: 20
Ragweed plant response rating [1]: 20
Plant response rating, Wheat [2]: 0
Wheat plant response rating [2]: 0
Plant response rating, Foxtail, Giant [3]: 0
Foxtail, Giant plant response rating [3]: 20
Plant response rating, Barnyardgrass [4, 16]: 0
Plant response rating, Barnyardgrass ([4]; 500 g ai/ha): 90
Plant response rating, Foxtail, Giant [5, 16]: 20
Plant response rating, Foxtail, Giant ([5]; 500 g ai/ha): 90
Plant response rating, Galium [6]: 50
Galium plant response rating [6]: 70
Plant response rating, Blackgrass [7]: 0
Blackgrass plant response rating [7]: 0
Plant response rating, Corn (corn (Zea mays)): 0
Corn plant response rating (corn (Zea mays)): 10
Plant response rating, Ryegrass, Italian [8]: 0
Ryegrass, Italian plant response rating [8]: 50
Plant response rating, Pigweed [9]: 20
Pigweed plant response rating [9]: 60
Plant response rating, Barnyardgrass [10]: 0
Barnyardgrass plant response rating [10]: 0
Plant response rating, Kochia (kochia (Bassia scoparia) [11]): 20
Kochia plant response rating (kochia (Bassia scoparia) [11]): 70
Plant response rating, Kochia (kochia (Bassia scoparia) [12]; [16]): 30
Plant response rating, Kochia (kochia (Bassia scoparia) [12]; 500 g ai/ha): 90
Plant response rating, Ragweed [13, 16]: 0
Plant response rating, Ragweed ([13]; 500 g ai/ha): 30
Plant response rating, Ryegrass, Italian [14, 16]: 30
Plant response rating, Ryegrass, Italian ([14]; 500 g ai/ha): 70
Plant response rating, Pigweed [15, 16]: 90
Plant response rating, Pigweed ([15]; 500 g ai/ha): 90

Cc1cc(F)c(C(=O)N(C)C)cc1NS(=O)(=O)C(F)(F)F [Compound 215]
Plant response rating, Ragweed [1]: 60
Ragweed plant response rating [1]: 80
Plant response rating, Wheat [2]: 30
Wheat plant response rating [2]: 70
Plant response rating, Foxtail, Giant [3]: 20
Foxtail, Giant plant response rating [3]: 50
Plant response rating, Barnyardgrass [4, 16]: 60
Plant response rating, Barnyardgrass ([4]; 500 g ai/ha): 90
Plant response rating, Foxtail, Giant [5, 16]: 40
Plant response rating, Foxtail, Giant ([5]; 500 g ai/ha): 70
Plant response rating, Galium [6]: 50
Galium plant response rating [6]: 70
Plant response rating, Blackgrass [7]: 0
Blackgrass plant response rating [7]: 0
Plant response rating, Corn (corn (Zea mays)): 0
Corn plant response rating (corn (Zea mays)): 60
Plant response rating, Ryegrass, Italian [8]: 0
Ryegrass, Italian plant response rating [8]: 60
Plant response rating, Pigweed [9]: 50
Pigweed plant response rating [9]: 80
Plant response rating, Barnyardgrass [10]: 0
Barnyardgrass plant response rating [10]: 40
Plant response rating, Kochia (kochia (Bassia scoparia) [11]): 30
Kochia plant response rating (kochia (Bassia scoparia) [11]): 70
Plant response rating, Kochia (kochia (Bassia scoparia) [12]; [16]): 80
Plant response rating, Kochia (kochia (Bassia scoparia) [12]; 500 g ai/ha): 90
Plant response rating, Ragweed [13, 16]: 0
Plant response rating, Ragweed ([13]; 500 g ai/ha): 20
Plant response rating, Ryegrass, Italian [14, 16]: 20
Plant response rating, Ryegrass, Italian ([14]; 500 g ai/ha): 70
Plant response rating, Pigweed [15, 16]: 100
Plant response rating, Pigweed ([15]; 500 g ai/ha): 90

Cc1cc(F)c(C(=O)N(C)C)cc1N(S(=O)(=O)C(F)(F)F)S(=O)(=O)C(F)(F)F [Compound 216]
Plant response rating, Ragweed [1]: 10
Ragweed plant response rating [1]: 60
Plant response rating, Wheat [2]: 0
Wheat plant response rating [2]: 70
Plant response rating, Foxtail, Giant [3]: 0
Foxtail, Giant plant response rating [3]: 20
Plant response rating, Barnyardgrass [4, 16]: 40
Plant response rating, Barnyardgrass ([4]; 500 g ai/ha): 80
Plant response rating, Foxtail, Giant [5, 16]: 20
Plant response rating, Foxtail, Giant ([5]; 500 g ai/ha): 90
Plant response rating, Galium [6]: 50
Galium plant response rating [6]: 70
Plant response rating, Blackgrass [7]: 0
Blackgrass plant response rating [7]: 30
Plant response rating, Corn (corn (Zea mays)): 30
Corn plant response rating (corn (Zea mays)): 40
Plant response rating, Ryegrass, Italian [8]: 0
Ryegrass, Italian plant response rating [8]: 70
Plant response rating, Pigweed [9]: 30
Pigweed plant response rating [9]: 70
Plant response rating, Barnyardgrass [10]: 0
Barnyardgrass plant response rating [10]: 50
Plant response rating, Kochia (kochia (Bassia scoparia) [11]): 20
Kochia plant response rating (kochia (Bassia scoparia) [11]): 30
Plant response rating, Kochia (kochia (Bassia scoparia) [12]; [16]): 100
Plant response rating, Kochia (kochia (Bassia scoparia) [12]; 500 g ai/ha): 90
Plant response rating, Ragweed [13, 16]: 0
Plant response rating, Ragweed ([13]; 500 g ai/ha): 30
Plant response rating, Ryegrass, Italian [14, 16]: 30
Plant response rating, Ryegrass, Italian ([14]; 500 g ai/ha): 90
Plant response rating, Pigweed [15, 16]: 80
Plant response rating, Pigweed ([15]; 500 g ai/ha): 100

Cc1cc(Cl)c(N(S(=O)(=O)C(F)(F)F)S(=O)(=O)C(F)(F)F)cc1C1=NOC2(CCCCC2)C1 [Compound 217]
Plant response rating, Ragweed [1]: 60
Ragweed plant response rating [1]: 70
Plant response rating, Wheat [2]: 0
Wheat plant response rating [2]: 30
Plant response rating, Foxtail, Giant [3]: 0
Foxtail, Giant plant response rating [3]: 0
Plant response rating, Barnyardgrass [4, 16]: 90
Plant response rating, Barnyardgrass ([4]; 500 g ai/ha): 100
Plant response rating, Foxtail, Giant [5, 16]: 90
Plant response rating, Foxtail, Giant ([5]; 500 g ai/ha): 100
Plant response rating, Galium [6]: 80
Galium plant response rating [6]: 90
Plant response rating, Blackgrass [7]: 0
Blackgrass plant response rating [7]: 20
Plant response rating, Corn (corn (Zea mays)): 0
Corn plant response rating (corn (Zea mays)): 20
Plant response rating, Ryegrass, Italian [8]: 0
Ryegrass, Italian plant response rating [8]: 0
Plant response rating, Pigweed [9]: 40
Pigweed plant response rating [9]: 80
Plant response rating, Barnyardgrass [10]: 0
Barnyardgrass plant response rating [10]: 30
Plant response rating, Kochia (kochia (Bassia scoparia) [11]): 50
Kochia plant response rating (kochia (Bassia scoparia) [11]): 70
Plant response rating, Kochia (kochia (Bassia scoparia) [12]; [16]): 70
Plant response rating, Kochia (kochia (Bassia scoparia) [12]; 500 g ai/ha): 90
Plant response rating, Ragweed [13, 16]: 60
Plant response rating, Ragweed ([13]; 500 g ai/ha): 90
Plant response rating, Ryegrass, Italian [14, 16]: 80
Plant response rating, Ryegrass, Italian ([14]; 500 g ai/ha): 100
Plant response rating, Pigweed [15, 16]: 70
Plant response rating, Pigweed ([15]; 500 g ai/ha): 100
